The record followed here is ChEMBL document CHEMBL1125691, “Escherichia coli mediated biosynthesis and in vitro anti-HIV activity of lipophilic 6-halo-2',3'-dideoxypurine nucleosides” (J Med Chem, 1991).

pEC50: −log10 of the molar value.

The test system of series [1] is ATH-8 cell line. The series is described as follows: Concentration required to suppress the growth of target ATH8 cells. As to conditions: Homo sapiens, read-out: CD50 (the source's name). Type of series: functional.
Series [2] deals with ATH-8 cell line. The series can be described thus: Concentration required to inhibit the cytopathic effect of HIV-1 on ATH8 cells. As to conditions: Homo sapiens, read-out: ED50 (the source's name). The series is classed as functional, Human immunodeficiency virus 1. In general terms: Protection from cytopathic effect is a common read-out in antiviral testing.
The subject of series [3] is ATH-8 cell line. The series can be described thus: (§1) ratio of CD50/ED50. Type of series: functional.
Series [4] is described as follows: Compound was evaluated for the partition coefficient measured for 1-octanol and 0.01 M potassium phosphate buffer (pH 7.0). Type of series: physicochemical. The note with it: octanol/water.
Series [5] relates to ATH-8 cell line. The series is described as follows: In Vitro evaluation for the anti-viral activity Drug concentrations required to inhibit the cytopathic effect of HIV-2 on ATH8 cells. The note with it: Homo sapiens, read-out: ED50 (the source's name). Type of series: functional.
Series [6] in a line: as §1. The series is classed as functional.
The test system of series [7] is ATH-8 cell line. The series is described as follows: Ratio of CD50/ED50. Type of series: functional.
For series [8], the system named is ATH-8 cell line. The series can be described thus: In vitro evaluation for the anti-viral activity Drug concentrations required to inhibit the cytopathic effect of HIV-1on ATH8 cells. The series is classed as functional. The note with it: Homo sapiens, read-out: ED50 (the source's name).
Series [9] concerns ATH-8 cell line. The series can be described thus: In vitro evaluation for the anti-viral activity by taking the drug concentrations required to suppress the growth of target ATH8 cells. Type of series: functional. As to conditions: Homo sapiens, read-out: CD50 (the source's name).

Regarding `Nc1nc(Br)c2ncn(C3CCC(CO)O3)c2n1` (configuration not stated), the CC50 in series [1] is more than 300 µM. Also, in series [2], the pEC50 is 5.16.
On to `O=c1[nH]cnc2c1ncn2[C@H]1CC[C@@H](CO)O1` [DIDANOSINE], for which the Ratio in series [3] is given as more than 161. Moreover, the CC50 in [1] is more than 900 µM. In series [4], the Partition coefficient was found to be 0.05. Besides, in series [2], the pEC50 was 5.25.
With `OC[C@@H]1CC[C@H](n2cnc3c(F)ncnc32)O1`, the CC50 in series [1] was found to be 190 µM. For the same compound, the pEC50 in series [5] was 4.80; in series [2], 5.55.
Turning to `Nc1ncc2ncn([C@H]3CC[C@@H](CO)O3)c2n1`, the CC50 in [1] is more than 200 µM. Moreover, the pEC50 in series [2] is less than 3.70.
The like results for `OCC1CCC(n2cnc3c(I)ncnc32)O1` (configuration not stated) were, in that order, 86 µM and 4.34.
For the compound `OCC1CCC(n2cnc3c(Br)ncnc32)O1` (configuration not stated), the CC50 in [1] was determined as 96 µM. Also, in [2], the pEC50 was 5.11.
On to `OC[C@@H]1CC[C@H](n2cnc3c(Cl)ncnc32)O1`, for which the CC50 in series [1] amounted to 164 µM. For the same compound, the figures for the pEC50 in series [5] and in [2] were 4.38 and 5.16, respectively.
In the case of `Nc1nc2c(ncn2[C@H]2CC[C@@H](CO)O2)c(=O)[nH]1`, the Ratio in series [3] was more than 257. Further, the CC50 in series [1] is more than 900 µM. Further, the Partition coefficient in series [4] worked out at 0.08. Also, the pEC50 in [2] is 5.46.
Consider `OC[C@@H]1CC[C@H](n2cnc3c(Cl)nc(Cl)nc32)O1`, for which, in [1], the CC50 worked out at 36 µM. In addition, the Ratio in series [6] was less than 0.2. In series [2], the pEC50 is less than 3.70.
As to `Nc1nc(I)c2ncn(C3CCC(CO)O3)c2n1` (configuration not stated), in series [1], the CC50 was 210 µM. In series [2], the pEC50 is 5.10.
Turning to `OCC1CCC(n2cnc3c(S)ncnc32)O1` (configuration not stated), the Ratio in series [3] is listed as less than 0.8. The CC50 in [1] was determined as 150 µM. The pEC50 in [2] was less than 3.70.
For the compound `Nc1nc(S)c2ncn(C3CCC(CO)O3)c2n1` (configuration not stated), in [7], the Ratio is reported as less than 0.1. Besides, the pEC50 in [8] was less than 3.70. Further, in series [9], the CC50 was 9 µM.
In the case of `Nc1nc(F)c2ncn([C@H]3CC[C@@H](CO)O3)c2n1`, the CC50 in [1] was more than 300 µM. The pEC50 in series [5] is 4.84; in series [2] it was 5.62.
In the same order, the values of `Nc1nc(Cl)c2ncn([C@H]3CC[C@@H](CO)O3)c2n1` are more than 300 µM, 4.90 and 5.26.
For the compound `OC[C@@H]1CC[C@H](n2cnc3cncnc32)O1`, in [1], the CC50 is more than 200 µM. Also, the pEC50 in [2] was less than 3.70.
Turning to `Cc1cn([C@H]2C[C@H](N=[N+]=[N-])[C@@H](CO)O2)c(=O)[nH]c1=O` [ZIDOVUDINE], the Ratio in [7] is on record as 4. Besides, in series [1], the CC50 is more than 20 µM. For the same compound, the Partition coefficient in series [4] is reported as 1.12. Further, the pEC50 in series [2] is 5.30.
`O=c1[nH]c(=O)c2ncn([C@H]3CC[C@@H](CO)O3)c2[nH]1`: the CC50 in series [1] was more than 200 µM. Moreover, the pEC50 in [2] is less than 3.70.
